Results published in PMC8154229 (ACS Omega, 2021).

Target: human H1R (Homo sapiens, UniProt P35367)
Type: binding
Conditions: between 13 and 17

Sequence of human H1R (P35367 whole entry): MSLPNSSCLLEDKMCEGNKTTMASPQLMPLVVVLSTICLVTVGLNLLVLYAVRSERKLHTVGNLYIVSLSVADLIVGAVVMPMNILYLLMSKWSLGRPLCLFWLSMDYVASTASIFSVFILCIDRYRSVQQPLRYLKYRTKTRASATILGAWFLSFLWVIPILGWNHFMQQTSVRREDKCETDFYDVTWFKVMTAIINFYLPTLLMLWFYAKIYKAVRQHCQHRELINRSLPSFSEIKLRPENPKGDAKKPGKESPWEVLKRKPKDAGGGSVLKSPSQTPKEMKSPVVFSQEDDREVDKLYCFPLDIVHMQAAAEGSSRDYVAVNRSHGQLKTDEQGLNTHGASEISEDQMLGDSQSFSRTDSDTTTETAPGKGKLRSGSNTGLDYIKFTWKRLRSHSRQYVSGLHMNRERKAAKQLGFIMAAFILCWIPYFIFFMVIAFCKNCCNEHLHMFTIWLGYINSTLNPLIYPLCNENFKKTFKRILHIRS

fold difference in affinity: 100 fold
SMILES: CN1CCC(=C2c3ccccc3CCc3ccccc32)CC1 [Compound 13, 4-(10,11-Dihydro-5H-dibenzo[a,d][7]annulen-5-ylidene)-1-methylpiperidine]
